One series has as its target T1, CYP2C9 (Homo sapiens, UniProt P11712).
T1 construct: A frozen liver microsome fraction was thawed on ice; from tissue; host or cells: liver microsome fraction
The experiment in a line: CYP2C9 inhibitory effect (liver microsome fraction, diclofenac substrate). The class given is in vitro ADME. Particulars: liver microsome fraction 0.5 mg/mL, diclofenac 2.5 μM. The method, then: The inhibitory effect on CYP2C9 was evaluated by the following method. • (1) A frozen liver microsome fraction was thawed on ice and diluted with a potassium phosphate buffer (PPB) to a final concentration of 0.5 mg/mL. • (2) A substrate for evaluation (diclofenac: D6899 from Sigma-Aldrich Co. LLC) was added thereto such that its final concentration was 2.5 μM. • (3) The mixture was slowly mixed and incubated at 37±1° C. for 5 minutes to prepare a reaction solution. • (4) 801 μL of the reaction solution was dispensed to each tube, and an evaluation compound serially diluted with 0.9 μL of DMSO was added thereto such that its final concentration was 9.1 to 20000 nM (⅓ dilutions with 8 concentrations). In this context, 0.9 μL of DMSO was added to a negative control group, and 0.9 μL of sulfaphenazole (S0758 from Sigma-Aldrich Co. LLC) adjusted to a final concentration of 1 μM with DMSO was added to a positive control group. • (5) After mixing, a 270 μL aliquot was transferred to each of two fresh tubes and incubated in a shaking water bath at 37±1° C. for 5 minutes. • (6) Reaction was started by the addition of 30 μL of 10 mM NADPH, and the tubes were incubated at 37° C.±1° C. for 10 minutes. • (7) The tubes were taken out of the shaking water bath, and the reaction was terminated by the addition of 300 μL of a reaction stop solution. After mixing, the tubes were centrifuged at 1021×g at 4° C. for 20 minutes. • (8) The amount of the substrate for evaluation metabolized was determined by LC-MS/MS to calculate the rate of inhibition at each concentration of the evaluation compound. • (9) IC50 values were calculated using GraphPad Prism5. A sample having an IC50 value of 1 μM or lower was given “++”; a sample having an IC50 value in the range of higher than 1 μM and 10 μM or lower was given “+”; and a sample having an IC50 value of higher than 10 μM was given “−”.
On the technique in general: Liver microsomes are vesicles of endoplasmic reticulum, rich in cytochrome P450 enzymes.

Series [1] can be described thus: PAMPA membrane permeability test. In kind it is in vitro ADME. Particulars: 10 μM, room temperature, 16 hours. The method, then:
The membrane permeability test was carried out using PAMPA. The specific method is as follows. • (1) Lecithin was added at 2% (w/v) into a dodecane solution and completely dissolved. • (2) 5 μL of the lecithin/dodecane solution was added to each well of a donor plate. In this respect, a pipette tip was positioned in no contact with the membrane. • (3) Immediately thereafter, 150 μL of a donor solution (5% DMSO-PBS) containing an evaluation compound (10 μM) was added to each well of the donor plate, and 300 μL of an aqueous buffer was added to each well of a PTFE acceptor plate. • (4) The donor plate filled with the donor solution containing the evaluation compound was slowly placed on the acceptor plate, and the undersurface of the membrane was confirmed to be in contact with the buffer in all the wells. • (5) After covering, the apparatus was incubated at room temperature for 16 hours. • (6) After incubation, 100 μL of the solution was recovered from each of the upper surface and the undersurface of the membrane in the acceptor plate, and acetonitrile containing an equal amount of an internal standard was added thereto. • (7) The concentration of the evaluation compound was measured to calculate a permeation rate.
A sample having a membrane permeation rate value of 1×10^−8 cm/sec or lower was given “C”; a sample having a value in the range of higher than 1×10^−8 cm/sec and 10×10^−8 cm/sec or lower was given “B”; and a sample having a value of higher than 10×10^−8 cm/sec was given “A”.
Background: In PAMPA a lipid-coated filter parts donor from acceptor wells.

Series [2] deals with BigET-1-induced blood pressure. The experiment in a line: BigET-1-induced blood pressure evaluation test. In kind it is in vivo, Wistar rat. Particulars: 30 mg/kg into the duodenum 1 hour before BigET-1 (20 μg/kg); Mean ± SD, N = 6. The method, then: Each 8- to 20-week-old male Wistar rat was subjected to tracheal catheter treatment for airway management, carotid catheter treatment for blood pressure measurement, femoral venous catheter treatment for BigET-1 administration, and duodenal catheter treatment for test substance administration under analgetic treatment and urethane anesthesia. After confirmation that the blood pressure and the heart rate became stable, a vehicle (0.5% methylcellulose 400 solution) or 30 mg/kg (5 ml/kg) of a test substance adjusted with a vehicle was administered into the duodenum. One hour thereafter, BigET-1 (20 μg/kg) was administered thereto, and the blood pressure was monitored until 60 minutes after BigET-1 administration. The test was conducted at n=6 per group. In analysis, systolic blood pressure and diastolic blood pressure were determined for 20 seconds every 5 minutes from 5 minutes before BigET-1 administration to 60 minutes after BigET-1 administration, and AUC0-60 min (mmHg*min) for 60 minutes after BigET-1 administration was calculated using a delta value from the value obtained 5 minutes before BigET-1 administration. The Student's t test was used for the comparison of AUC between the vehicle administration group and the test substance administration group.

T1 sequence (P11712 whole entry): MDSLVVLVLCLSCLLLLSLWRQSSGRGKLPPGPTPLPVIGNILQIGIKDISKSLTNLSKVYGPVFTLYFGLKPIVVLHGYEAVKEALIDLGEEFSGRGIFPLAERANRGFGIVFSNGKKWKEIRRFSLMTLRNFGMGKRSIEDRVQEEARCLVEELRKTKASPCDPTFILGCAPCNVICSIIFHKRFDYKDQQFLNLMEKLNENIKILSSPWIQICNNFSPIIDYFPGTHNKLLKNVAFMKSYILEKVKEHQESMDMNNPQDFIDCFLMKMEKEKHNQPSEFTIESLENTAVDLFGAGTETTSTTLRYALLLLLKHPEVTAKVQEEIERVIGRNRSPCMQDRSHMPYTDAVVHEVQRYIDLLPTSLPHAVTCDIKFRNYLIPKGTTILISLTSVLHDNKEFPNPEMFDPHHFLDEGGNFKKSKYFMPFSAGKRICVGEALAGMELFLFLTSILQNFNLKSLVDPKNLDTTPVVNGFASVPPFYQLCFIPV

Turning to `Cc1cc2c(cc1C#Cc1ncccc1S(=O)(=O)Nc1noc(C)c1C)C(C)(C)OC2` [Example 1, N-(4,5-Dimethylisoxazol-3-yl)-2-((3,3,6-trimethyl-1,3-dihydroisobenzofuran-5-yl)ethynyl)pyridine-3-sulfonamide], the IC50 against CYP2C9 was greater than 10 µM. Further, the Membrane permeation rate result in series [1] is reported as “A (value of higher than 10×10^−8 cm/sec)”. Moreover, in series [2], the “Diastolic blood pressure delta AUC0-60 min” value is recorded as 278 ± 539 mmHg*min and the “Systolic blood pressure delta AUC0-60 min” value stood at 83 ± 508 mmHg*min.

The compound `Cc1cc2c(cc1C#Cc1ncccc1S(=O)(=O)Nc1noc(C)c1C)COC2` [Example 3, N-(4,5-Dimethylisoxazol-3-yl)-2-((6-methyl-1,3-dihydroisobenzofuran-5-yl)ethynyl)pyridine-3-sulfonamide] returned an IC50 on CYP2C9 greater than 10 µM. Also, the Membrane permeation rate result in series [1] is on record as “A (value of higher than 10×10^−8 cm/sec)”. Moreover, in series [2], the “Diastolic blood pressure delta AUC0-60 min” value was 322 ± 435 mmHg*min and the “Systolic blood pressure delta AUC0-60 min” value came to 113 ± 565 mmHg*min.

As for `Cc1cc2c(cc1C#Cc1ncccc1S(=O)(=O)Nc1noc(C)c1C)C(=O)OC2` [Example 4, N-(4,5-Dimethylisoxazol-3-yl)-2-((6-methyl-3-oxo-1,3-dihydroisobenzofuran-5-yl)ethynyl)pyridine-3-sulfonamide], on CYP2C9, the IC50 was greater than 10 µM. Further, the Membrane permeation rate result in series [1] was “C (membrane permeation rate value of 1×10^−8 cm/sec or lower)”.

In the case of `Cc1onc(NS(=O)(=O)c2cccnc2C#Cc2ccc3c(c2)COC3)c1C` [Example 5, 2-((1,3-Dihydroisobenzofuran-5-yl)ethynyl)-N-(4,5-dimethylisoxazol-3-yl)pyridine-3-sulfonamide], at CYP2C9, the IC50 is greater than 10 µM. For the same compound, the Membrane permeation rate result in series [1] is “B (value in the range of higher than 1×10^−8 cm/sec and 10×10^−8 cm/sec or lower)”.

`Cc1onc(NS(=O)(=O)c2cccnc2C#Cc2cc3c(cc2Cl)COC3)c1C` [Example 6, 2-((6-Chloro-1,3-dihydroisobenzofuran-5-yl)ethynyl)-N-(4,5-dimethylisoxazol-3-yl)pyridine-3-sulfonamide]: the IC50 on CYP2C9 fell in the range of 1 to 10 µM. The Membrane permeation rate result in series [1] is reported as “A (value of higher than 10×10^−8 cm/sec)”.

On to `Cc1cc2c(cc1C#Cc1ncccc1S(=O)(=O)Nc1noc(C)c1Cl)C(C)(C)OC2` [Example 7, N-(4-Chloro-5-methylisoxazol-3-yl)-2-((3,3,6-trimethyl-1,3-dihydroisobenzofuran-5-yl)ethynyl)pyridine-3-sulfonamide], for which the IC50 against CYP2C9 fell in the range of 1 to 10 µM. In series [1], the Membrane permeation rate entry is “A (value of higher than 10×10^−8 cm/sec)”.

`Cc1cc2c(cc1C#Cc1ncccc1S(=O)(=O)Nc1onc(C)c1C)C(C)(C)OC2` [Example 8, N-(3,4-Dimethylisoxazol-5-yl)-2-((3,3,6-trimethyl-1,3-dihydroisobenzofuran-5-yl)ethynyl)pyridine-3-sulfonamide]: the IC50 on CYP2C9 was greater than 10 µM. Further, in series [1], the Membrane permeation rate result is “B (value in the range of higher than 1×10^−8 cm/sec and 10×10^−8 cm/sec or lower)”.

`Cc1cc2c(cc1C#Cc1ncccc1S(=O)(=O)Nc1onc(C)c1Cl)C(C)(C)OC2` [Example 9, N-(4-Chloro-3-methylisoxazol-5-yl)-2-((3,3,6-trimethyl-1,3-dihydroisobenzofuran-5-yl)ethynyl)pyridine-3-sulfonamide] returned an IC50 against CYP2C9 of 1 to 10 µM. The Membrane permeation rate result in series [1] is “A (value of higher than 10×10^−8 cm/sec)”.

Consider `COc1nc(C)cnc1NS(=O)(=O)c1cccnc1C#Cc1cc2c(cc1C)COC2(C)C` [Example 10, N-(3-Methoxy-5-methylpyrazin-2-yl)-2-((3,3,6-trimethyl-1,3-dihydroisobenzofuran-5-yl)ethynyl)pyridine-3-sulfonamide], for which the IC50 at CYP2C9 was greater than 10 µM. The Membrane permeation rate entry in series [1] is “A (value of higher than 10×10^−8 cm/sec)”.

As usually defined, the IC50 is the concentration at which inhibition is half-maximal. High values mean a need for much substance, low ones inhibition by little substance.

The values are drawn from patent US12686676B2, “Compound, endothelin-A receptor antagonist, and pharmaceutical composition” (Alchemedicine, Inc., priority 2021, dated 2026).
